This passage reports T/C results from PubChem BioAssay AID296 (DTP/NCI, 2004).

The assay has as its system MX-1 breast xenograft, nude mice, tumor weight T/C. Briefly: NCI In Vivo Anticancer Drug Screen. Data for tumor model Human Mammary Carcinoma MX-1 Xenograft (intrarenal inoculation) in NU/NU Swiss (nude) mice. The conditions noted are these: endpoint: mean tumor weight change, higher = larger tumour. Put shortly: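 Antitumour effect measured in vivo against vehicle controls, expressed as T/C.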
Background: A xenograft is tissue or cells of one species grown in another, often human tumour cells in immunodeficient mice.

The mark [1] stands for this setting: dose: 200.0 mg/kg/injection, schedule: Q01DX010 (sc), vehicle: saline.
Where [2] appears, read: dose: 75.0 mg/kg/injection, schedule: Q04DX003 (sc), vehicle: saline with Tween-80.
Setting [3] is: dose: 150.0 mg/kg/injection, schedule: Q04DX003 (sc), vehicle: saline with Tween-80.
The mark [4] stands for this setting: dose: 300.0 mg/kg/injection, schedule: Q04DX003 (sc), vehicle: saline with Tween-80.
[5] abbreviates: dose: 600.0 mg/kg/injection, schedule: Q04DX003 (sc), vehicle: saline with Tween-80.
Where [6] appears, read: dose: 1200.0 mg/kg/injection, schedule: Q04DX003 (sc), vehicle: saline with Tween-80.
The mark [7] stands for this setting: dose: 300.0 mg/kg/injection, schedule: Q04DX003 (sc), vehicle: saline.
The mark [8] stands for this setting: dose: 600.0 mg/kg/injection, schedule: Q04DX003 (sc), vehicle: saline.
The mark [9] stands for this setting: dose: 1200.0 mg/kg/injection, schedule: Q04DX003 (sc), vehicle: saline.
Setting [10] is: dose: 200.0 mg/kg/injection, schedule: Q01DX010 (sc), vehicle: water.
Setting [11] is: dose: 400.0 mg/kg/injection, schedule: Q01DX010 (sc), vehicle: water.
The mark [12] stands for this setting: dose: 50.0 mg/kg/injection, schedule: Q04DX003 (sc), vehicle: suspension in saline.

SMILES strings stand for the structures. Where “and” joins values, the source holds several entries; their conditions need not be identical. Identical values can stand only once. Inconclusive results are not listed.

For `CN(C)C=O`, the T/C is 10 % of control under setting [1]; 1 % of control (dose: 1896.0 mg/kg/injection, schedule: Q01DX010 (sc), vehicle: suspension in saline); -44 % of control (dose: 2844.0 mg/kg/injection, schedule: Q01DX010 (sc), vehicle: suspension in saline); -11 % of control (dose: 4266.0 mg/kg/injection, schedule: Q01DX010 (sc), vehicle: suspension in saline).

As for `O=C1C2CC=CCC2C(=O)N1SC(Cl)(Cl)Cl` (stereo not given), the T/C runs as follows: (dose: 37.5 mg/kg/injection, schedule: Q04DX003 (sc), vehicle: saline with Tween-80) 85 % of control; under setting [2], 77 % of control; under setting [3], 97 % of control and 119 % of control; under setting [4], 97 % of control and 112 % of control.

Turning to `O=C(Nc1ccccc1C(=O)O)c1cc([N+](=O)[O-])cc([N+](=O)[O-])c1`, the T/C by setting is: (dose: 100.0 mg/kg/injection, schedule: Q04DX003 (sc), vehicle: saline with Tween-80) 101 % of control; (dose: 200.0 mg/kg/injection, schedule: Q04DX003 (sc), vehicle: saline with Tween-80) 120 % of control.

In the case of `O=C(C/C(=N\C(=S)Nc1cc(C(F)(F)F)ccc1Cl)NO)N1CCCC1`, the T/C is, setting by setting: under setting [3], 88 % of control; under setting [4], 94 % of control; under setting [5], 82 % of control; under setting [6], 98 % of control.

For `CNC(=O)n1c(N)nc(-c2ccccc2)c1-c1ccccc1`, the T/C is 105 % of control under setting [3], 62 % of control under setting [4], 62 % of control under setting [5] and 68 % of control under setting [6].

For the compound `C=C(C)[C@@H]1CCc2c(O)c(O)c(=O)cc(C)c2C1`, the T/C is, setting by setting: (dose: 150.0 mg/kg/injection, schedule: Q04DX003 (sc), vehicle: saline) 91 % of control; under setting [7], 107 % of control; under setting [8], 89 % of control; under setting [9], 98 % of control.

In the case of `CC1=CC2C(O)(CC(CO)=CC3C4C(C)(C)C4(OC(=O)c4ccccc4)C(OC(=O)c4ccccc4)C(C)C32O)C1=O` (stereo not given), the T/C was 83 % of control (dose: 2.5 mg/kg/injection, schedule: Q04DX003 (sc), vehicle: saline with Tween-80); 70 % of control (dose: 5.0 mg/kg/injection, schedule: Q04DX003 (sc), vehicle: saline with Tween-80); 90 % of control (dose: 10.0 mg/kg/injection, schedule: Q04DX003 (sc), vehicle: saline with Tween-80).

Consider `NC(=O)NO`, for which the T/C reads like this: under setting [1], 44 % of control; (dose: 400.0 mg/kg/injection, schedule: Q01DX010 (sc), vehicle: saline) 49 % of control.

As to `COC1C(/C=C/C(C)=O)OC2OC(C)(C)OC21` (stereo not given), the T/C is 97 % of control (dose: 75.0 mg/kg/injection, schedule: Q04DX003 (sc), vehicle: suspension in saline); 160 % of control (dose: 150.0 mg/kg/injection, schedule: Q04DX003 (sc), vehicle: suspension in saline); 82 % of control (dose: 600.0 mg/kg/injection, schedule: Q04DX003 (sc), vehicle: suspension in saline); 63 % of control (dose: 1200.0 mg/kg/injection, schedule: Q04DX003 (sc), vehicle: suspension in saline).

Take `O=C1NC(O)CCN1C1OC(CO)C(O)C1O` (stereo not given): the T/C under setting [10] is 111 % of control; the T/C under setting [11] is 112 % of control; the T/C (dose: 800.0 mg/kg/injection, schedule: Q01DX010 (sc), vehicle: water) was 79 % of control; the T/C (dose: 1600.0 mg/kg/injection, schedule: Q01DX010 (sc), vehicle: water) was 103 % of control.

As to `CSc1ncc2ncn(C3OC(CO)C(O)C3O)c2n1` (stereo not given), the T/C was 56 % of control (dose: 300.0 mg/kg/injection, schedule: Q04DX003 (sc), vehicle: Klucel (hydroxypropylcellulose) (HPC)); 59 % of control (dose: 600.0 mg/kg/injection, schedule: Q04DX003 (sc), vehicle: Klucel (hydroxypropylcellulose) (HPC)); 37 % of control (dose: 1200.0 mg/kg/injection, schedule: Q04DX003 (sc), vehicle: Klucel (hydroxypropylcellulose) (HPC)); 68 % of control (dose: 2400.0 mg/kg/injection, schedule: Q04DX003 (sc), vehicle: Klucel (hydroxypropylcellulose) (HPC)).

For `CCO/C=C1\SC(=S)N(c2ccccc2C)C1=O`, the T/C runs as follows: (dose: 100.0 mg/kg/injection, schedule: Q01DX010 (sc), vehicle: saline with Tween-80) 121 % of control; (dose: 200.0 mg/kg/injection, schedule: Q01DX010 (sc), vehicle: saline with Tween-80) 90 % of control; (dose: 800.0 mg/kg/injection, schedule: Q01DX010 (sc), vehicle: saline with Tween-80) 111 % of control.

Regarding `CC(=O)/C(=C\c1ccc(Cl)c(Cl)c1)C(=O)CCN(C)C`, the T/C by setting is: (dose: 25.0 mg/kg/injection, schedule: Q04DX003 (ip), vehicle: saline) 166 % of control; (dose: 50.0 mg/kg/injection, schedule: Q04DX003 (ip), vehicle: saline) 98 % of control; (dose: 100.0 mg/kg/injection, schedule: Q04DX003 (ip), vehicle: saline) 83 % of control.

Consider `Cc1c2cc[n+](CCN3CCCCC3)cc2c(C)c2c1[nH]c1ccc(O)cc12`, for which the T/C was 159 % of control (dose: 25.0 mg/kg/injection, schedule: Q04DX003 (sc), vehicle: suspension in saline); 163 % of control under setting [12]; 159 % of control (dose: 100.0 mg/kg/injection, schedule: Q04DX003 (sc), vehicle: suspension in saline).

Consider `CCCCCCCCCCCC(=O)NC1CC(O[C@H]2C[C@](O)(C(=O)CO)Cc3c(O)c4c(c(O)c32)C(=O)c2c(OC)cccc2C4=O)OC(C)C1O` (stereo not given in full), for which the T/C was 59 % of control (dose: 100.0 mg/kg/injection, schedule: Q01DX010 (sc), vehicle: water); 97 % of control under setting [10]; 53 % of control under setting [11].

For the compound `COc1cc2cc(c1Cl)N(C)C(=O)CC(OC(=O)C(C)C)C1(C)OC1C(C)C1CC(O)(NC(=O)O1)C(OC)/C=C/C=C(C)C2` (stereo not given), the T/C runs as follows: (dose: 1.56 micrograms/kg/injection, schedule: Q01DX010 (sc), vehicle: saline + alcohol) 40 % of control; (dose: 3.12 micrograms/kg/injection, schedule: Q01DX010 (sc), vehicle: saline + alcohol) 67 % of control; (dose: 6.25 micrograms/kg/injection, schedule: Q01DX010 (sc), vehicle: saline + alcohol) 53 % of control; (dose: 12.5 micrograms/kg/injection, schedule: Q01DX010 (sc), vehicle: saline + alcohol) 67 % of control.

Regarding `OCC1OC(n2cnc3c(Cl)ncnc32)C(O)C1O` (stereo not given), the T/C reads like this: under setting [7], 74 % of control; under setting [8], 84 % of control; under setting [9], 80 % of control.

As to `Nc1ncnc2c1nnn2C1OC(CO)C(O)C1O` (stereo not given), the T/C (dose: 18.75 mg/kg/injection, schedule: Q04DX003 (sc), vehicle: Klucel (hydroxypropylcellulose) (HPC)) is 76 % of control and 80 % of control.

Regarding `O=c1[nH]c2c(ccc3cnccc32)c2c1CCC2`, the T/C under setting [12] was 71 % of control; the T/C (dose: 200.0 mg/kg/injection, schedule: Q04DX003 (sc), vehicle: suspension in saline) was 70 % of control; the T/C (dose: 400.0 mg/kg/injection, schedule: Q04DX003 (sc), vehicle: suspension in saline) was 100 % of control.

Consider `Brc1ccc(C[N+]23CN4CN(CN(C4)C2)C3)cc1`, for which the T/C was 84 % of control under setting [2], 99 % of control under setting [3], 89 % of control under setting [4] and 73 % of control under setting [5].

Turning to `O=[N+]([O-])O.O=[N+]([O-])O.[NH-]C1CCCCC1[NH-].[Pt+2]` (stereo not given), the T/C (dose: 1.0 mg/kg/injection, schedule: Q01DX010 (sc), vehicle: dextrose) is 62 % of control and the T/C (dose: 2.0 mg/kg/injection, schedule: Q01DX010 (sc), vehicle: dextrose) was 27 % of control.

As for `Ic1ncnc2c1ncn2C1CCCO1` (stereo not given), the T/C is 84 % of control (dose: 50.0 mg/kg/injection, schedule: Q04DX003 (sc), vehicle: Klucel (hydroxypropylcellulose) (HPC)); 97 % of control (dose: 200.0 mg/kg/injection, schedule: Q04DX003 (sc), vehicle: Klucel (hydroxypropylcellulose) (HPC)); 123 % of control (dose: 400.0 mg/kg/injection, schedule: Q04DX003 (sc), vehicle: Klucel (hydroxypropylcellulose) (HPC)).

`Cn1cnc([N+](=O)[O-])c1SCC(=O)O`: the T/C was 80 % of control under setting [7]; 43 % of control under setting [8]; 88 % of control under setting [9]; 71 % of control (dose: 2400.0 mg/kg/injection, schedule: Q04DX003 (sc), vehicle: saline).
